Assay results published in patent US11401279B2, “Pyrido[3,2-d]pyrimidine compounds as immunomodulators” (Incyte Corporation, priority 2019, dated 2022).

What was measured:
PD-1/PD-L1 = PD-1/PD-L1 (Homo sapiens (Human), UniProt Q9NZQ7); test: Homogeneous Time-Resolved Fluorescence (HTRF) PD-1/PD-L1 binding assay; details: recombinant human PD-1 and PD-L1
Procedure: The assays were conducted in a standard black 384-well polystyrene plate with a final volume of 20 μL. Inhibitors were first serially diluted in DMSO and then added to the plate wells before the addition of other reaction components. The final concentration of DMSO in the assay was 1%. The assays were carried out at 25° C. in the PBS buffer (pH 7.4) with 0.05% Tween-20 and 0.1% BSA. Recombinant human PD-L1 protein (19-238) with a His-tag at the C-terminus was purchased from AcroBiosystems (PD1-H5229). Recombinant human PD-1 protein (25-167) with Fc tag at the C-terminus was also purchased from AcroBiosystems (PD1-H5257). PD-L1 and PD-1 proteins were diluted in the assay buffer and 10 μL was added to the plate well. Plates were centrifuged and proteins were preincubated with inhibitors for 40 minutes. The incubation was followed by the addition of 10 μL of HTRF detection buffer supplemented with Europium cryptate-labeled anti-human IgG (PerkinElmer-AD0212) specific for Fc and anti-His antibody conjugated to SureLight®-Allophycocyanin (APC, PerkinElmer-AD0059H). After centrifugation, the plate was incubated at 25° C. for 60 min. before reading on a PHERAstar FS plate reader (665 nm/620 nm ratio). Final concentrations in the assay were—3 nM PD1, 10 nM PD-L1, 1 nM europium anti-human IgG and 20 nM anti-His-Allophycocyanin. IC50 determination was performed by fitting the curve of percent control activity versus the log of the inhibitor concentration using the GraphPad Prism 5.0 software.

[1] = system: U2OS/PD-L1 cells and Jurkat-PD-1-SHP cells; test: Src homology region 2 domain-containing phosphatase (SHP) assay; format: cell-based; details: Homo sapiens, U2OS; PathHunter chemiluminescence, 2 hours
Procedure: U2OS/PD-L1 cells (DiscoveRx Corporation) were maintained in McCoy's 5A medium with addition of 10% FBS, 0.25 μg/mL Puromycin. After removing the culture media, the cell medium was replaced with assay medium (RPMI1640 medium with 1% FBS). The U2OS/PD-L1 cells were then added in 384-well black clear bottom assay plate (CELLCOAT® Tissue Culture Plates, Greiner Bio-One) at 5000 cells per well in 20 μL assay medium. Test compounds were prepared by serial dilution in DMSO and 125 nL compound were first transferred to the 384 REMP plate well (Thermofisher) by ECHO liquid handler (Labcyte) followed with addition of 27.5 μL assay medium. 5 µL/well compounds in the assay medium were transferred to the cell plate with 0.05% DMSO in the final assay at 0.25 μM. Jurkat-PD-1-SHP cells (DiscoveRx Corporation) were cultured in RPMI1640 medium supplemented with 10% FBS, 250 μg/mL Hygromycin B, 500 μg/mL G418. After the replacement of culture media with assay medium, 5,000 Jurkat-PD-1-SHP cells in 20 μL were dispensed into each well. The assay plate was incubated at 37° C., 5% CO2 for 2 hours before 2.5 μL PathHunter reagent 1 (DiscoveRx Corporation) were added to each well. The assay plate was shaken for 1 min at 350 rpm in the dark followed with addition of 10 μL PathHunter reagent 2 (DiscoveRx Corporation). Chemiluminescent signal was recorded with TopCount reader (Perkin Elmer) after incubation at room temperature for 1 hour. Wells with DMSO were served as the positive controls and wells containing no cells were used as negative controls. IC50 determination was performed by fitting the curve of percentage of control activity versus the log of the compound concentration using the GraphPad Prism 6.0 software.

[2] = system: PD-L1 aAPC/CHO-K1 cells and Jurkat-PD-1-NFAT effector cells; test: Nuclear factor of activated T-cells (NFAT) assay; format: cell-based; details: Cricetulus griseus, CHO-K1; luminescence, 24 hours
Procedure: PD-L1 aAPC/CHO-Klcells (Promega) were maintained in F-12 medium with addition of 10% FBS, 200 μg/mL Hygromycin B, 250 μg/mL Geneticin (G418). Jurkat-PD-1-NFAT effector cells (Promega) were cultured in RPMI 1640 medium supplemented with 10% FBS, 100 μg/mL Hygromycin B, 500 μg/mL G418. The culture media of PD-L1 aAPC/CHO-K1 cells were first replaced with assay medium (RPMI1640 medium with 1% FBS). The PD-L1 aAPC/CHO-Klcells were then added in a white 384-well white clear bottom assay plate (CELLCOAT® Tissue Culture Plates, Greiner Bio-One) at 8000 per well in 10 μL assay medium. Test compounds were prepared by serial dilution in DMSO and 0.8 μL test compounds in DMSO were first transferred to the 384 REMP plate well (Thermofisher) by PlateMate Plus (Thermofisher) followed with addition of 50 μL plating medium. 5 μL compounds in the assay medium were transferred to the cells with 0.4% DMSO in the final assay at 2 μM. After removing the culture media, 10,000 Jurkat-PD-1-NFAT effector cells in 5 μL assay medium was dispensed into each well. The assay plate was incubated at 37° C., 5% CO2 for 24 hours. After the assay plate was equilibrated to room temp for 15 minutes, 20 μL/well of Bio-Glo™ reagent (Promega) were added. After 8 minutes incubation at room temperature, luminescence was read at with Pherastar microplate reader (BMG Labtech). The fold of induction (FOI) was calculated based on the ratio of luminescence normalized to the DMSO wells within each assay plate. The maximum percentage of induction was reported based on the ratio between the highest FOI of each compound and the maximum FOI of control compound within each assay plate. Wells with DMSO were served as the negative controls and wells containing control compound with the highest FOI were used as positive controls. EC50 determination was performed by fitting the curve of percent control activity versus the log of the compound concentration using the GraphPad Prism 6.0 software.

PD-L1 = PD-L1 (Homo sapiens (Human), UniProt Q9NZQ7); test: PD-L1 whole blood internalization assay; format: cell-based; details: PD-L1 internalization in human whole blood, CD14+ cells, interferon γ, 24 hour
Procedure: To determine PD-L1 internalization in human whole blood, normal human blood (Biological Specialty Corp, Colmar. Pa.) was incubated in the presence or absence of a concentration range of test compounds and 1 ng/mL human interferon γ (R&D Systems Inc. Minn. […] Blood was then stained with PD-L1 (MIH1, eBioscience; or BD Biosciences San Jose, Calif.), CD14 (Life Technologies, Carlsbad, Calif.) for 30 minutes in the dark at room temperature. Whole Blood/red cells were lysed/fixed (lysis buffer BD Biosciences) for 5 minutes at 37° C. in the dark and then centrifuged at 1600 RPM for 5 minutes. Cells were resuspended in Stain Buffer (BD Bioscience, San Jose, Calif.) and transferred into 96 well round bottom plates (Corning). Cells were gated on CD14+(BD Biosciences) and PD-L1 expression determined by mean fluorescence intensity (MFI) (BD LSRFortessa™ X-20). IC50 determination was performed by fitting the curve of compound percent inhibition versus the log of the compound concentration using the GraphPad Prism 7.0 software.

[3] = In vivo pharmacokinetics in rats; set-up: species or system Sprague Dawley rats; details: rat, cassette dosing
Procedure: For in vivo pharmacokinetic experiments, test compounds were administered to male Sprague Dawley rats or male and female Cynomolgus monkeys intravenously or via oral gavage. For intravenous (IV) dosing, test compounds were dosed at 0.5 to 1 mg/kg using a formulation of 10% dimethylacetamide (DMAC) in acidified saline via IV bolus for rat and 5 min or 10 min IV infusion for monkey. For oral (PO) dosing, test compounds were dosed at 1.0 to 3.0 mg/kg using 5% DMAC in 0.5% methylcellulose in citrate buffer (pH 3.5). Blood samples were collected at predose and various time points up to 24 hours postdose. All blood samples were collected using EDTA as the anticoagulant and centrifuged to obtain plasma samples. The plasma concentrations of test compounds were determined by LC-MS methods. The measured plasma concentrations were used to calculate PK parameters by standard noncompartmental methods using Phoenix® WinNonlin software program (version 7.0, Pharsight Corporation).
In rats and monkeys, cassette dosing of test compounds were conducted to obtain preliminary PK parameters.

[4] = male, Sprague-Dawley, plasma, 1.0 mg/kg IV

Sequence of PD-L1 (Q9NZQ7 19-290): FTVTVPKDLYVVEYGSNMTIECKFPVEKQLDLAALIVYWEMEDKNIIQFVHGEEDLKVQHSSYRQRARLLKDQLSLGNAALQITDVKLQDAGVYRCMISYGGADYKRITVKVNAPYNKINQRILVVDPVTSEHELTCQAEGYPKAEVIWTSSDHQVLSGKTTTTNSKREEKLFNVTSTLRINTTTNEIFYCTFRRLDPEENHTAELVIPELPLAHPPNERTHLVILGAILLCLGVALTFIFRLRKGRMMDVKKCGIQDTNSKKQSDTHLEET
Sequence of PD-1/PD-L1 (Q9NZQ7 19-238): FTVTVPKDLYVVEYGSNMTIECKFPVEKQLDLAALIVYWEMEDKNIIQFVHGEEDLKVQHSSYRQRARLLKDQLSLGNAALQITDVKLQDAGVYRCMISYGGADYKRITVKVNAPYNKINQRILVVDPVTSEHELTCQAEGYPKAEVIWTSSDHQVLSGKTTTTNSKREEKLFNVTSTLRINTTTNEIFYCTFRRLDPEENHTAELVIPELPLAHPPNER

SMILES | IC50 (PD-1/PD-L1) [nM] | IC50 [1] [nM] | EC50 [2] [nM] | IC50 (PD-L1) [nM] | clearance [3, 4] [mL/min/kg] | half-life [3, 4] [h] | Vd ([3]; male, Sprague-Dawley, plasma, 1.0 mg/kg IV, read-out: Vss) [L/kg] | Cmax ([3]; male, Sprague-Dawley, plasma, 3.0 mg/kg PO) [nM] | AUC(0-inf) ([3]; male, Sprague-Dawley, plasma, 3.0 mg/kg PO, read-out: AUC0-inf) [µM·h] | F ([3]; 3.0 mg/kg PO) [%]
Cn1c(C(=O)Nc2cccc(-c3cccc(NC(=O)c4nc5c(n4C)CCN(C4CCC4)C5)c3Cl)c2Cl)nc2c1CCN(CC13CCC(C(=O)O)(CC1)C3)C2 [Example 178, reference compound] | 1.9 | 13 | 82 | 587 | – | – | – | – | – | –
Cc1c(Nc2nc(C(F)F)nc3cc(CN4CCC[C@H]4C)cnc23)cccc1-c1cccc(NC(=O)c2nc3c(n2C)CCN(CCC24CCC(C(=O)O)(CC2)C4)C3)c1Cl [Example 8, (R)-4-(2-(2-((2-chloro-3′-((2-(difluoromethyl)-7-((2-methylpyrrolidin-1-yl)methyl)pyrido[3,2-d]pyrimidin-4-yl)amino)-2′-methyl-[1,1′-biphenyl]-3-yl)carbamoyl)-1-methyl-1,4,6,7-tetrahydro-5H-imidazo[4,5-c]pyridin-5-yl)ethyl)bicyclo[2.2.1]heptane-1-carboxylic Acid] | 1.5 | 4 | 7 | 33 | – | – | – | – | – | –
Cc1c(Nc2nc(C(F)F)nc3cc(CN4CC[C@](C)(O)C4)cnc23)cccc1-c1cccc(NC(=O)c2nc3c(n2C)CCN(CCC24CCC(C(=O)O)(CC2)C4)C3)c1Cl [Example 4, (S)-4-(2-(2-((2-chloro-3′-((2-(difluoromethyl)-7-((3-hydroxy-3-methylpyrrolidin-1-yl)methyl)pyrido[3,2-d]pyrimidin-4-yl)amino)-2′-methyl-[1,1′-biphenyl]-3-yl)carbamoyl)-1-methyl-1,4,6,7-tetrahydro-5H-imidazo[4,5-c]pyridin-5-yl)ethyl)bicyclo[2.2.1]heptane-1-carboxylic Acid] | 1.9 | 3.5 | 4 | 17 | – | – | – | – | – | –
Cc1c(NC(=O)c2nc3c(n2C)CCN(CCC24CCC(C(=O)O)(CC2)C4)C3)cccc1-c1cccc(Nc2nc(C(F)F)nc3cc(CN4CC[C@@](C)(O)C4)cnc23)c1C [Example 6, (R)-4-(2-(2-((3′-((2-(difluoromethyl)-7-((3-hydroxy-3-methylpyrrolidin-1-yl)methyl)pyrido[3,2-d]pyrimidin-4-yl)amino)-2,2′-dimethyl-[1,1′-biphenyl]-3-yl)carbamoyl)-1-methyl-1,4,6,7-tetrahydro-5H-imidazo[4,5-c]pyridin-5-yl)ethyl)bicyclo[2.2.1]heptane-1-carboxylic Acid] | – | 2.2 | 8.2 | 31 | 12.7 | 4.5 | 2.99 | 182 | 1.43 | 30
Cn1c(C(=O)Nc2cccc(-c3cccc(NC(=O)c4nc5c(n4C)CCN(C4CCOCC4)C5)c3Cl)c2Cl)nc2c1CCN(CC13CCC(C(=O)O)(CC1)C3)C2 [Example 179, reference compound] | 18 | 61 | 709 | – | – | – | – | – | – | –
CC(C)N1CCc2c(nc(C(=O)Nc3cccc(-c4cccc(NC(=O)c5nc6c(n5C)CCN(CC57CCC(C(=O)O)(CC5)C7)C6)c4Cl)c3Cl)n2C)C1 [Example 177, reference compound] | 1.5 | 5.7 | 31 | 185 | – | – | – | – | – | –
Cc1c(Nc2nc(C(F)F)nc3cc(CN4C[C@@H](O)C[C@H]4C)cnc23)cccc1-c1cccc(NC(=O)c2nc3c(n2C)CCN(CCC24CCC(C(=O)O)(CC2)C4)C3)c1Cl [Example 12, 4-(2-(2-((2-chloro-3′-((2-(difluoromethyl)-7-(((2R,4S)-4-hydroxy-2-methylpyrrolidin-1-yl)methyl)pyrido[3,2-d]pyrimidin-4-yl)amino)-2′-methyl-[1,1′-biphenyl]-3-yl)carbamoyl)-1-methyl-1,4,6,7-tetrahydro-5H-imidazo[4,5-c]pyridin-5-yl)ethyl)bicyclo[2.2.1]heptane-1-carboxylic Acid] | 1.5 | 3 | 41 | 30 | – | – | – | – | – | –
Cc1c(Nc2nc(C(F)F)nc3cc(CN4CC(O)C4)cnc23)cccc1-c1cccc(NC(=O)c2nc3c(n2C)CCN(CCC24CCC(C(=O)O)(CC2)C4)C3)c1Cl [Example 13, 4-(2-(2-((2-chloro-3′-((2-(difluoromethyl)-7-((3-hydroxyazetidine-1-yl)methyl)pyrido[3,2-d]pyrimidin-4-yl)amino)-2′-methyl-[1,1′-biphenyl]-3-yl)carbamoyl)-1-methyl-1,4,6,7-tetrahydro-5H-imidazo[4,5-c]pyridin-5-yl)ethyl)bicyclo[2.2.1]heptane-1-carboxylic Acid] | 1.8 | 3 | 3 | 24 | – | – | – | – | – | –
